Where two headings read alike, the source gives them in different places.
Key:
Format in all cases: in vivo
Plasmopara viticola = assay: Test B: grape downy mildew, spray 24 h after inoculation (disease rating, 100 = 100% disease control); details: for pest or weed control at 40 ppm: Plasmopara viticola, 144 h, read-out: Test B disease rating (100 = 100% disease control, 0 = no disease control)
Outline: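 This is a curative spray test, applied 24 h after inoculation. Compounds in 50/50 acetone–water with 250 ppm Trem 014 surfactant were sprayed to run-off on P. viticola-infected seedlings, with 200 ppm equating to 500 g/ha. Plants were kept 5 days in a 20 °C growth chamber, then 24 h humid, and scored 0–100 for disease control relative to controls.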

Phytophthora infestans [1] = assay: whole plant or invertebrate; details: for Test D disease rating (100 = 100% disease control, 0 = no disease control): tomato late blight; for pest or weed control at 40 ppm: Phytophthora infestans, in Solanum lycopersicum, topical, 96 h, read-out: Test D disease rating (100 = 100% disease control, 0 = no disease control)
Phytophthora infestans [2] = assay: whole plant or invertebrate; details: for Test C disease rating (100 = 100% disease control, 0 = no disease control): tomato late blight; for pest or weed control at 40 ppm: Phytophthora infestans, in Solanum lycopersicum, 144 h, read-out: Test C disease rating (100 = 100% disease control, 0 = no disease control)
[3] = tested on: Erysiphe graminis f. sp. tritici; assay: Test E: wheat powdery mildew, spray the day before inoculation (disease rating, 100 = 100% disease control); details: for pest or weed control at 40 ppm: Blumeria graminis, topical, 168 h, read-out: Test E disease rating (100 = 100% disease control, 0 = no disease control)
Outline: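 Protective test: spores of E. graminis f. sp. tritici dusted on wheat seedlings one day after run-off spraying of test suspension (acetone/water with 250 ppm surfactant; 200 ppm = 500 g/ha). Ratings after 7 days in growth chamber at 20° C, 100 = full control, 0 = none, relative to controls.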

[4] = spray 24 h after inoculation, compounds without asterisk (not 40 or 10 ppm)
[5] = spray 17 h after inoculation, compounds without asterisk (not 40 or 10 ppm)
[6] = spray the day before inoculation, compounds without asterisk (not 40 or 10 ppm)
[7] = spray 24 h after inoculation, tested at 40 ppm
[8] = spray the day before inoculation, tested at 40 ppm

Structure (SMILES) | Test B disease rating (100 = 100% disease control, 0 = no disease control) (Plasmopara viticola; [4]) [%] | Test D disease rating (100 = 100% disease control, 0 = no disease control) (Phytophthora infestans [1]; [5]) [%] | Test C disease rating (100 = 100% disease control, 0 = no disease control) (Phytophthora infestans [2]; [6]) [%] | Test E disease rating (100 = 100% disease control, 0 = no disease control) [3, 6] [%] | also measured
Cc1cc(C(F)(F)F)nn1CC(=O)N1CCC(c2nc(C(=O)N(C)C3CCC(C)c4ccccc43)cs2)CC1 (mixture of isomers) [compound 192] | 97 | 99 | 100 | 0 | –
CC(=O)OC1CCc2ccccc2C1N(C)C(=O)c1csc(C2CCN(C(=O)Cn3nc(C(F)(F)F)cc3C)CC2)n1 (centres unmarked) [compound 195] | 47 | 88 | 99 | 0 | –
C[C@H](c1ccccc1)N(C)C(=O)c1csc(C2CCN(C(=O)Cn3cc(Br)cn3)CC2)n1 [compound 71] | 34 | 0 | 74 | 0 | –
Cc1cc(C(F)(F)F)nn1CC(=O)N1CCC(c2nc(C(=O)N(C)C3c4ccccc4CC3C)cs2)CC1 (centres unmarked) [Compound 226, N-(2,3-dihydro-2-methyl-1H-inden-1-yl)-N-methyl-2-[1-[[5-methyl-3-(trifluoromethyl)-1H-pyrazol-1-yl]acetyl]-4-piperidinyl]-4-thiazolecarboxamide] | – | – | – | – | pest or weed control at 40 ppm (Plasmopara viticola; [7]): 100%; pest or weed control at 40 ppm (Phytophthora infestans [1]): 99%; pest or weed control at 40 ppm (Phytophthora infestans [2]): 100%; pest or weed control at 40 ppm [3, 8]: 0%
COc1ccccc1C(C)N(C)C(=O)c1csc(C2CCN(C(=O)Cn3nc(C(F)(F)F)cc3C)CC2)n1 (centres unmarked) [compound 255] | – | – | – | – | Test B disease rating (100 = 100% disease control, 0 = no disease control) (Plasmopara viticola; sprayed 24 h after inoculation, tested at 10 ppm (**)): 25; Test D disease rating (100 = 100% disease control, 0 = no disease control) (Phytophthora infestans [1]; sprayed 17 h after inoculation, tested at 10 ppm (**)): 0; Test C disease rating (100 = 100% disease control, 0 = no disease control) (Phytophthora infestans [2]; sprayed the day before inoculation, tested at 10 ppm (**)): 9; Test E disease rating (100 = 100% disease control, 0 = no disease control) ([3]; sprayed the day before inoculation, 7 days at 20° C., tested at 10 ppm (**)): 0
Cc1cc(C(F)(F)F)nn1CC(=O)N1CCC(c2nc(C(=S)N(C)[C@@H]3CCCc4ccccc43)cs2)CC1 [Compound 289, N-methyl-2-[1-[[5-methyl-3-(trifluoromethyl)-1H-pyrazol-1-yl]acetyl]-4-piperidinyl]-N-[(1R)-1,2,3,4-tetrahydro-1-naphthalenyl]-4-thiazolecarbothioamide] | – | – | – | – | Test B disease rating (100 = 100% disease control, 0 = no disease control) (Plasmopara viticola; sprayed 24 h after inoculation, tested at 40 ppm (*)): 100; Test D disease rating (100 = 100% disease control, 0 = no disease control) (Phytophthora infestans [1]; sprayed 17 h after inoculation, tested at 40 ppm (*)): 99; Test C disease rating (100 = 100% disease control, 0 = no disease control) (Phytophthora infestans [2]; sprayed the day before inoculation, tested at 40 ppm (*)): 100; Test E disease rating (100 = 100% disease control, 0 = no disease control) ([3]; sprayed the day before inoculation, 7 days at 20° C., tested at 40 ppm (*)): 65
Cc1cc(C(F)(F)F)nn1CC(=O)N1CCC(c2nc(C(=O)N(C)C3CCC(C)(C)c4ccccc43)cs2)CC1 (centres unmarked) [compound 199] | – | – | – | – | Test B disease rating (100 = 100% disease control, 0 = no disease control) (Plasmopara viticola; [7]): 99%; Test D disease rating (100 = 100% disease control, 0 = no disease control) (Phytophthora infestans [1]; spray 17 h after inoculation, tested at 40 ppm): 99%; Test C disease rating (100 = 100% disease control, 0 = no disease control) (Phytophthora infestans [2]; [8]): 100%; Test E disease rating (100 = 100% disease control, 0 = no disease control) [3, 8]: 0%
Cc1cc(C(F)(F)F)nn1CC(=O)N1CCCN(c2nc(C(=O)N(C)[C@@H]3CCCc4ccccc43)cs2)CC1 [compound 241] | 17 | 68 | 99 | 47 | –
Cc1nc(C2CCN(C(=O)Cn3nc(C(F)(F)F)cc3C)CC2)sc1C(=O)N(C)[C@@H]1CCCc2ccccc21 [compound 227] | 44 | 0 | 63 | 0 | –
CCc1nc(C)cn1CC(=O)N1CCC(c2nc(C(=O)N(C)[C@H](C)c3ccccc3)cs2)CC1 [compound 128] | 0 | 0 | 0 | 0 | –
Cc1cc(C(F)(F)F)nn1CC(=O)N1CC=C(c2nc(C(=O)N(C)[C@@H]3CCCc4ccccc43)cs2)CC1 [Compound 218, N-methyl-2-[1,2,3,6-tetrahydro-1-[[5-methyl-3-(trifluoromethyl)-1H-pyrazol-1-yl]acetyl]-4-pyridinyl]-N-[(1R)-1,2,3,4-tetrahydro-1-naphthalenyl]-4-thiazolecarboxamide] | – | – | – | – | pest or weed control at 40 ppm (Plasmopara viticola; [7]): 91%; pest or weed control at 40 ppm (Phytophthora infestans [1]): 99%; pest or weed control at 40 ppm (Phytophthora infestans [2]): 100%; pest or weed control at 40 ppm [3, 8]: 0%
